“And” between values parts separate entries of the source, which are not always exact repeats. Identical values can stand only once. Toxic doses and inconclusive results are not listed. Residues, ends and D or L forms follow the SMILES beside them. *: point of attachment. Trt = c1ccc(C(c2ccccc2)(c2ccccc2)*)cc1
Tested on: CD2F1 mice, L1210 leukemia ip, survival T/C
Test: NCI In Vivo Anticancer Drug Screen. Data for tumor model L1210 Leukemia (intraperitoneal) in CD2F1 (CDF1) mice
Conditions: higher = longer survival
How it was run: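 Compound-dosed mice with transplantable tumor versus matched vehicle controls; endpoint ratio T/C reported.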

[1] = endpoint: mean survival time, dose: 50.0 mg/kg/injection, schedule: Q01DX009 (ip), vehicle: Klucel (hydroxypropylcellulose) (HPC)
[2] = endpoint: mean survival time, dose: 100.0 mg/kg/injection, schedule: Q01DX009 (ip), vehicle: Klucel (hydroxypropylcellulose) (HPC)
[3] = endpoint: mean survival time, dose: 200.0 mg/kg/injection, schedule: Q01DX009 (ip), vehicle: Klucel (hydroxypropylcellulose) (HPC)
[4] = endpoint: mean survival time, dose: 100.0 mg/kg/injection, schedule: Q01DX001 (ip), vehicle: carboxymethylcellulose (CMC)
[5] = endpoint: mean survival time, dose: 200.0 mg/kg/injection, schedule: Q01DX001 (ip), vehicle: carboxymethylcellulose (CMC)
[6] = endpoint: mean survival time, dose: 400.0 mg/kg/injection, schedule: Q01DX001 (ip), vehicle: carboxymethylcellulose (CMC)
[7] = endpoint: mean survival time, dose: 100.0 mg/kg/injection, schedule: Q04DX003 (ip), vehicle: saline with Tween-80
[8] = endpoint: mean survival time, dose: 200.0 mg/kg/injection, schedule: Q04DX003 (ip), vehicle: saline with Tween-80
[9] = endpoint: mean survival time, dose: 400.0 mg/kg/injection, schedule: Q04DX003 (ip), vehicle: saline with Tween-80
[10] = endpoint: mean survival time, dose: 100.0 mg/kg/injection, schedule: Q04DX002 (ip), vehicle: saline with Tween-80
[11] = endpoint: mean survival time, dose: 200.0 mg/kg/injection, schedule: Q04DX002 (ip), vehicle: saline with Tween-80
[12] = endpoint: mean survival time, dose: 25.0 mg/kg/injection, schedule: Q04DX003 (ip), vehicle: saline with Tween-80
[13] = endpoint: mean survival time, dose: 50.0 mg/kg/injection, schedule: Q04DX003 (ip), vehicle: saline with Tween-80
[14] = endpoint: mean survival time, dose: 100.0 mg/kg/injection, schedule: Q04DX003 (ip), vehicle: saline
[15] = endpoint: mean survival time, dose: 200.0 mg/kg/injection, schedule: Q04DX003 (ip), vehicle: saline
[16] = endpoint: mean survival time, dose: 400.0 mg/kg/injection, schedule: Q04DX003 (ip), vehicle: saline

CC(C)NC(=O)Oc1ccccc1C(=O)OCc1ccccc1
T/C [1]: 115 % of control | T/C [2]: 108 % of control | T/C [3]: 112 % of control

NCC1C2CCC(C2)C1CCCNCCCC1C2CCC(C2)C1CN (stereo not drawn)
T/C (endpoint: mean survival time, dose: 6.25 mg/kg/injection, schedule: Q04DX002 (ip), vehicle: saline with Tween-80): 98 % of control | T/C (endpoint: mean survival time, dose: 12.5 mg/kg/injection, schedule: Q04DX002 (ip), vehicle: saline with Tween-80): 107 % of control | T/C (endpoint: mean survival time, dose: 25.0 mg/kg/injection, schedule: Q04DX002 (ip), vehicle: saline with Tween-80): 114 % of control

Cc1cn(C2CCC(CO)C2)c(=O)[nH]c1=O (stereo not drawn)
T/C [4]: 95 % of control | T/C [5]: 95 % of control | T/C [6]: 103 % of control

O=C1C(Br)=C(c2ccccc2)C(=O)C(Br)=C1c1ccccc1
T/C (endpoint: mean survival time, dose: 100.0 mg/kg/injection, schedule: Q04DX002 (ip), vehicle: Klucel (hydroxypropylcellulose) (HPC)): 90 % of control | T/C (endpoint: mean survival time, dose: 200.0 mg/kg/injection, schedule: Q04DX002 (ip), vehicle: Klucel (hydroxypropylcellulose) (HPC)): 86 % of control | T/C (endpoint: mean survival time, dose: 400.0 mg/kg/injection, schedule: Q04DX002 (ip), vehicle: Klucel (hydroxypropylcellulose) (HPC)): 90 % of control

O=C(c1ccccc1)C(O)(Cc1ccccc1)c1ccccc1 (stereo not drawn)
T/C [7]: 96 % of control | T/C [8]: 102 % of control | T/C [9]: 97 % of control

O=P(NCCCO)(OCc1ccccc1)N(CCCl)CCCl (stereo not drawn)
T/C (endpoint: mean survival time, dose: 15.63 mg/kg/injection, schedule: Q01DX001 (ip), vehicle: DMSO): 101 % of control | T/C (endpoint: mean survival time, dose: 31.25 mg/kg/injection, schedule: Q01DX001 (ip), vehicle: DMSO): 98 % of control | T/C (endpoint: mean survival time, dose: 62.5 mg/kg/injection, schedule: Q01DX001 (ip), vehicle: DMSO): 101 % of control | T/C (endpoint: mean survival time, dose: 125.0 mg/kg/injection, schedule: Q01DX001 (ip), vehicle: DMSO): 104 % of control | T/C (endpoint: mean survival time, dose: 250.0 mg/kg/injection, schedule: Q01DX001 (ip), vehicle: DMSO): 116 % of control | T/C (endpoint: mean survival time, dose: 1000.0 mg/kg/injection, schedule: Q01DX001 (ip), vehicle: DMSO): 173 % of control | T/C (endpoint: mean survival time, dose: 1000.0 mg/kg/injection, schedule: Q01DX001 (ip), vehicle: other): 178 % of control

COc1ccc(NC(=O)Nc2cc(OC)c(Cl)cc2OC)cc1
T/C [10]: 96 % of control | T/C [11]: 89 % of control | T/C (endpoint: mean survival time, dose: 400.0 mg/kg/injection, schedule: Q04DX002 (ip), vehicle: saline with Tween-80): 89 % of control

O=C(NO)c1ccc(O)c(O)c1O
T/C (endpoint: mean survival time, dose: 25.0 mg/kg/injection, schedule: Q01DX009 (ip), vehicle: distilled water + Tween-80): 110 % of control | T/C (endpoint: mean survival time, dose: 50.0 mg/kg/injection, schedule: Q01DX009 (ip), vehicle: distilled water + Tween-80): 108 % of control | T/C (endpoint: mean survival time, dose: 100.0 mg/kg/injection, schedule: Q01DX009 (ip), vehicle: distilled water + Tween-80): 116 % of control

COc1nc(NC2OC(CO)C(O)C(O)C2O)c(I)c(=O)n1C (stereo not drawn)
T/C (endpoint: median survival time, dose: 12.5 mg/kg/injection, schedule: Q01DX005 (ip), vehicle: saline with Tween-80): 100 % of control | T/C (endpoint: median survival time, dose: 25.0 mg/kg/injection, schedule: Q01DX005 (ip), vehicle: saline with Tween-80): 100 % of control | T/C (endpoint: median survival time, dose: 50.0 mg/kg/injection, schedule: Q01DX005 (ip), vehicle: saline with Tween-80): 100 % of control | T/C (endpoint: median survival time, dose: 100.0 mg/kg/injection, schedule: Q01DX005 (ip), vehicle: saline with Tween-80): 100 % of control | T/C (endpoint: median survival time, dose: 200.0 mg/kg/injection, schedule: Q01DX005 (ip), vehicle: saline with Tween-80): 101 % of control

COc1cccc(C=Nc2ccc(C)cc2)c1O.COc1cccc(C=Nc2ccc(C)cc2)c1O.[Co]
T/C [12]: 91 % of control | T/C [13]: 88 % of control | T/C (endpoint: mean survival time, dose: 50.0 mg/kg/injection, schedule: Q04DX003 (ip), vehicle: saline): 102 % of control | T/C [7]: 94 % of control | T/C [14]: 98 % of control | T/C [8]: 94 % of control | T/C [15]: 96 % of control | T/C [9]: 99 % of control | T/C [16]: 98 % of control

Clc1ccccc1-c1nc2ccccc2[nH]1
T/C [13]: 98 % of control | T/C [7]: 96 % of control | T/C [8]: 96 % of control

C1=C(CCc2c[nH]c3ccccc23)CCN(CCc2ccccc2)C1
T/C [1]: 103 % of control | T/C [2]: 95 % of control | T/C [3]: 122 % of control

O=C(O)/C=C\C(=O)O
T/C (endpoint: mean survival time, dose: 0.5 mg/kg/injection, schedule: Q04DX003 (ip), vehicle: saline with Tween-80): 107 % of control | T/C (endpoint: mean survival time, dose: 1.0 mg/kg/injection, schedule: Q01DX009 (ip), vehicle: saline): 100 % of control | T/C (endpoint: mean survival time, dose: 1.0 mg/kg/injection, schedule: Q04DX003 (ip), vehicle: saline with Tween-80): 95 % of control | T/C (endpoint: mean survival time, dose: 1.56 mg/kg/injection, schedule: Q04DX003 (ip), vehicle: saline): 89 % of control and 95 % of control | T/C (endpoint: mean survival time, dose: 2.0 mg/kg/injection, schedule: Q01DX009 (ip), vehicle: saline): 97 % of control | T/C (endpoint: mean survival time, dose: 3.0 mg/kg/injection, schedule: Q04DX003 (ip), vehicle: saline with Tween-80): 103 % of control | T/C (endpoint: mean survival time, dose: 3.13 mg/kg/injection, schedule: Q04DX003 (ip), vehicle: saline): 87 % of control and 91 % of control | T/C (endpoint: mean survival time, dose: 6.0 mg/kg/injection, schedule: Q04DX003 (ip), vehicle: saline with Tween-80): 103 % of control | T/C (endpoint: mean survival time, dose: 6.25 mg/kg/injection, schedule: Q04DX003 (ip), vehicle: saline): 92 % of control and 96 % of control

O=c1[nH]c(=O)n(C2OC(CO)C(O)C2O)o1 (stereo not drawn)
T/C (endpoint: mean survival time, dose: 12.5 mg/kg/injection, schedule: Q01DX005 (ip), vehicle: water): 93 % of control | T/C (endpoint: mean survival time, dose: 25.0 mg/kg/injection, schedule: Q01DX005 (ip), vehicle: water): 101 % of control | T/C (endpoint: mean survival time, dose: 50.0 mg/kg/injection, schedule: Q01DX005 (ip), vehicle: water): 90 % of control | T/C (endpoint: mean survival time, dose: 100.0 mg/kg/injection, schedule: Q01DX005 (ip), vehicle: water): 98 % of control | T/C (endpoint: mean survival time, dose: 200.0 mg/kg/injection, schedule: Q01DX005 (ip), vehicle: water): 96 % of control

C[n+]1c(/C=C/c2ccccc2Cl)ccc2ccccc21
T/C (endpoint: mean survival time, dose: 12.5 mg/kg/injection, schedule: Q01DX009 (ip), vehicle: saline with Tween-80): 94 % of control | T/C (endpoint: mean survival time, dose: 25.0 mg/kg/injection, schedule: Q01DX009 (ip), vehicle: saline with Tween-80): 100 % of control | T/C (endpoint: mean survival time, dose: 50.0 mg/kg/injection, schedule: Q01DX009 (ip), vehicle: saline with Tween-80): 96 % of control | T/C [13]: 95 % of control

Cc1cccc(N2C(=O)CSC2=S)c1
T/C [7]: 92 % of control | T/C [8]: 88 % of control | T/C [9]: 95 % of control

COC(=O)C(CC(C)C)NC(=O)C(N)CSC(c1ccccc1)(c1ccccc1)c1ccccc1 (stereo not drawn) (H-Cys(Trt)-Leu-OMe; configuration not given here)
T/C (endpoint: mean survival time, dose: 25.0 mg/kg/injection, schedule: Q01DX009 (ip), vehicle: saline): 104 % of control | T/C (endpoint: mean survival time, dose: 50.0 mg/kg/injection, schedule: Q01DX009 (ip), vehicle: saline): 110 % of control | T/C (endpoint: mean survival time, dose: 100.0 mg/kg/injection, schedule: Q01DX009 (ip), vehicle: saline): 108 % of control

Nc1nc(N)nc(Nc2ccc(Sc3ccc(Nc4nc(N)nc(N)n4)cc3)cc2)n1
T/C (endpoint: mean survival time, dose: 180.0 mg/kg/injection, schedule: Q01DX Z (ip), vehicle: saline): 103 % of control

C=CCS(=O)(=O)O
T/C (endpoint: mean survival time, dose: 100.0 mg/kg/injection, schedule: Q01DX009 (ip), vehicle: saline sonified): 96 % of control | T/C [14]: 100 % of control | T/C (endpoint: mean survival time, dose: 200.0 mg/kg/injection, schedule: Q01DX009 (ip), vehicle: saline sonified): 96 % of control | T/C [15]: 107 % of control | T/C (endpoint: mean survival time, dose: 400.0 mg/kg/injection, schedule: Q01DX009 (ip), vehicle: saline sonified): 96 % of control | T/C [16]: 107 % of control

O.O=S(=O)([O-])O.O=[N+]([O-])O.[Co+3].[NH2-].[NH2-].[NH2-].[NH2-]
T/C [10]: 94 % of control | T/C [11]: 97 % of control

Nc1cn[nH]c(=O)c1
T/C [4]: 102 % of control | T/C [5]: 100 % of control | T/C [6]: 92 % of control

COc1ccc(CCCC(=O)O)cc1
T/C (endpoint: mean survival time, dose: 100.0 mg/kg/injection, schedule: Q01DX001 (ip), vehicle: saline with Tween-80): 94 % of control | T/C (endpoint: mean survival time, dose: 200.0 mg/kg/injection, schedule: Q01DX001 (ip), vehicle: saline with Tween-80): 92 % of control | T/C (endpoint: mean survival time, dose: 400.0 mg/kg/injection, schedule: Q01DX001 (ip), vehicle: saline with Tween-80): 94 % of control

CC([NH-])C([NH-])O.[Br][Pt+2][Br] (stereo not drawn)
T/C [12]: 169 % of control

Reference: PubChem BioAssay AID256 (DTP/NCI, 2004)
